Reference: patent publication US5439885A, “CRF analogs” (The Salk Institute for Biological Studies, priority 1993, dated 1995)
Entries after “also recorded” stand apart in the source; their conditions may differ. Where two headings read alike, the source gives them in different places. Where a SMILES comes first, the peptide text is derived from it. Where no end group is shown, it is not given here. [ ]: non-standard residue; d: D form. Nle = CCCC[C@H](N)C(=O)O

Assays:
[1] = lowering of blood pressure when injected peripherally; assay type: in vivo, mammals; settings: e.g. intravenously
[2] = biopotency of CRF analog (test not specified)
[3] = test system: secretion of ACTH and β-END-LI; test: inhibition of the secretion of ACTH and β-END-LI by CRF antagonists; assay type: in vivo; settings: injected peripherally
[4] = test system: rats; settings: administered into the ventricles; cited from earlier work
[5] = CRF in the brain; cited from earlier work
[6] = test system: secretion of ACTH and β-END-LI; test: in vivo stimulation of the secretion of ACTH and β-END-LI
Method: (§1) The synthetic CRF agonist peptides [Ala^20 ]-oCRF and [Ala^39 ]-oCRF are examined for their effects on the secretion of ACTH and β-endorphin in vitro and also in vivo. The potency of synthetic oCRF analogs to stimulate the secretion of ACTH and β-endorphin by cultured rat pituitary cells is measured using the procedure as generally set forth in Endocrinology, 91, 562 (1972) and compared against synthetic oCRF. [Ala^20 ]-oCRF is considered to be about 2 to 4 times as potent as the native hormone. […] In vivo testing which can be carried out using the general procedure set forth in C.

[7] = test system: cultured rat pituitary cells; assay type: cell-based
Method: as §1

[8] = test system: cultured rat pituitary cells; settings: background statement; cited from earlier work
[9] = test system: secretion of ACTH and β-END-LI; settings: background statement; cited from earlier work
[10] = background statement; cited from earlier work

| Molecule | biopotency [2] | stimulation of ACTH and β-endorphin-like activities (β-END-LI) in vitro [8] | stimulation of ACTH and β-endorphin-like activities (β-END-LI) in vivo [9] | lowering of blood pressure [10] | further results |
| --- | --- | --- | --- | --- | --- |
| CC[C@H](C)[C@H](NC(=O)[C@@H](NC(=O)[C@H](CCC(=O)O)NC(=O)[C@H](CCSC)NC(=O)[C@H](CC(C)C)NC(=O)[C@H](CCCCN)NC(=O)[C@H](CCCNC(=N)N)NC(=O)[C@H](CC(N)=O)NC(=O)[C@H](CO)NC(=O)[C@H](Cc1c[nH]cn1)NC(=O)[C@H](C)NC(=O)[C@H](CCC(N)=O)NC(=O)[C@H](CCC(N)=O)NC(=O)[C@H](C)NC(=O)[C@H](CC(C)C)NC(=O)[C@H](CCC(N)=O)NC(=O)[C@H](CCC(=O)O)NC(=O)[C@H](C)NC(=O)[C@H](CCCNC(=N)N)NC(=O)[C@H](C)NC(=O)[C@H](CCSC)NC(=O)[C@H](C)NC(=O)[C@H](CC(C)C)NC(=O)[C@@H](NC(=O)[C@H](CCC(=O)O)NC(=O)[C@H](CCCNC(=N)N)NC(=O)[C@H](CC(C)C)NC(=O)[C@H](CC(C)C)NC(=O)[C@H](Cc1c[nH]cn1)NC(=O)[C@@H](Cc1ccccc1)NC(=O)[C@@H](NC(=O)[C@H](CC(C)C)NC(=O)[C@H](CC(=O)O)NC(=O)[C@H](CC(C)C)NC(=O)[C@H](CO)NC(=O)[C@@H](NC(=O)[C@@H]1CCCN1C(=O)[C@@H]1CCCN1C(=O)[C@@H](N)CCC(=O)O)[C@@H](C)CC)[C@@H](C)O)C(C)C)[C@@H](C)CC)C(N)=O [IV] (H-EPPISLDLT[dF]HLLREVLAMARAEQLAQQAHSNRKLMEII-NH2) | biopotent |  |  |  | lowering of blood pressure [1]: significant lowering of blood pressure |
| CCCC[C@H](NC(=O)[C@H](C)NC(=O)[C@H](CC(C)C)NC(=O)[C@@H](NC(=O)[C@H](CCC(=O)O)NC(=O)[C@H](CCCNC(=N)N)NC(=O)[C@H](CC(C)C)NC(=O)[C@H](CC(C)C)NC(=O)[C@H](Cc1c[nH]cn1)NC(=O)[C@H](N)Cc1ccccc1)C(C)C)C(=O)N[C@@H](C)C(=O)N[C@@H](CCCNC(=N)N)C(=O)N[C@@H](C)C(=O)N[C@@H](CCC(=O)O)C(=O)N[C@@H](CCC(N)=O)C(=O)N[C@@H](CC(C)C)C(=O)N[C@@H](C)C(=O)N[C@@H](CCC(N)=O)C(=O)N[C@@H](CCC(N)=O)C(=O)N[C@@H](C)C(=O)N[C@@H](Cc1c[nH]cn1)C(=O)N[C@@H](CO)C(=O)N[C@@H](CC(N)=O)C(=O)N[C@@H](CCCNC(=N)N)C(=O)N[C@@H](CCCNC(=N)N)C(=O)N[C@@H](CC(C)C)C(=O)N[C@@H](CCCC)C(=O)N[C@@H](C)C(=O)N[C@H](C(=O)N[C@H](C(N)=O)[C@@H](C)CC)[C@@H](C)CC [IX] (H-[dF]HLLREVLA[Nle]ARAEQLAQQAHSNRRL[Nle]AII-NH2) | biopotent |  |  |  | inhibition of the secretion of ACTH and β-END-LI [3]: inhibits the secretion of ACTH and β-END-LI |
| CRF: physiologic corticotropin releasing factor, a hentetracontapeptide; species form not specified at the place (SEEPPISLDLTFHLLREVLEMARAEQLAQQAHSNRKLMEII-NH2; ends and bridges not checked; UniProt P06850 154-194, looked up) |  |  |  |  | activity [4]: increases activity; learning performance [4]: improves learning performance; respiratory rate [5]: appears to increase respiratory rate |
| SEEPPISLDLT[dF]HLLREVLA[Nle]ARAEQLAQQAHSNRRL[Nle]AII-NH2 [VIA] | biopotent |  |  |  | stimulation of the secretion of ACTH and β-END-LI [6]: stimulates the secretion of ACTH and β-END-LI; lowering of blood pressure [1]: significant lowering of blood pressure |
| SQEPPISLDLTFHLLREVLAMTKADQLAQQAHSNRKLLDIA-NH2 [Example I] |  |  |  |  | potency to stimulate the secretion of ACTH and β-endorphin, times as potent as the native hormone [7]: 2-4 times |
| SQEPPISLDLTFHLLREVLEMTKADQLAQQAHSNRKLLAIA-NH2 [II] |  |  |  |  | increase in biopotency in vitro over the native hormone [7]: ~85% |
| Ser-Gln-Glu-Pro-Pro-Ile-Ser-Leu-Asp-Leu-Thr-Phe-His-Leu-Leu-Arg-Glu-Val-Leu-Glu-Met-Thr-Lys-Ala-Asp-Gln-Leu-Ala-Gln-Gln-Ala-His-Ser-Asn-Arg-Lys-Leu-Leu-Asp-Ile-Ala (SQEPPISLDLTFHLLREVLEMTKADQLAQQAHSNRKLLDIA) [oCRF] |  | stimulate ACTH and β-endorphin-like activities | stimulates the secretion of ACTH and β-endorphin; also recorded: stimulate ACTH and β-endorphin-like activities | lowers blood pressure; also recorded: substantially lower blood pressure |  |
| Ser-Gln-Glu-Pro-Pro-Ile-Ser-Leu-Asp-Leu-Thr-phe-His-Leu-Leu-Arg-Glu-Met-Leu-Glu-Met-Ala-Lys-Ala-Glu-Gln-Glu-Ala-Glu-Gln-Ala-Ala-Leu-Asn-Arg-Leu-Leu-Leu-Glu-Glu-Ala (SQEPPISLDLTFHLLREMLEMAKAEQEAEQAALNRLLLEEA) [AHC] |  | stimulate ACTH and β-endorphin-like activities | stimulate ACTH and β-endorphin-like activities | substantially lower blood pressure |  |
| Ser-Glu-Glu-Pro-Pro-Ile-Ser-Leu-Asp-Leu-Thr-phe-His-Leu-Leu-Arg-Glu-Val-Leu-Glu-Met-Ala-Arg-Ala-Glu-Gln-Leu-Ala-Gln-Gln-Ala-His-Ser-Asn-Arg-Lys-Leu-Met-Glu-Ile-Ile (SEEPPISLDLTFHLLREVLEMARAEQLAQQAHSNRKLMEII) [rCRF] |  | stimulate ACTH and β-endorphin-like activities | stimulate ACTH and β-endorphin-like activities | substantially lower blood pressure |  |
